In patent publication US4469634A, “Allyloxy- and allylthio-2,3,4,5-tetrahydro-1H-3-benzazepines” (SmithKline Beckman Corporation, priority 1982, dated 1984):
Where a name gives a salt, the structure may show the parent alone. Read-outs that look alike come from different tables or passages of the source.

Assays:
[1] = target: T1, alpha2-adrenoceptor (Cavia porcellus, UniProt Q60474); experiment: prejunctional alpha2-antagonist activity in isolated superfused guinea pig left atrium (shift of clonidine concentration-response curve); format: cell-based
T1 construct: The left atrium is removed, dissected free of extraneous tissue and mounted in a 2 ml superfusion chamber; from tissue; host or cells: left atrium of male guinea pig (sympathetic nerve terminals)
T1 sequence (Q60474 1-464): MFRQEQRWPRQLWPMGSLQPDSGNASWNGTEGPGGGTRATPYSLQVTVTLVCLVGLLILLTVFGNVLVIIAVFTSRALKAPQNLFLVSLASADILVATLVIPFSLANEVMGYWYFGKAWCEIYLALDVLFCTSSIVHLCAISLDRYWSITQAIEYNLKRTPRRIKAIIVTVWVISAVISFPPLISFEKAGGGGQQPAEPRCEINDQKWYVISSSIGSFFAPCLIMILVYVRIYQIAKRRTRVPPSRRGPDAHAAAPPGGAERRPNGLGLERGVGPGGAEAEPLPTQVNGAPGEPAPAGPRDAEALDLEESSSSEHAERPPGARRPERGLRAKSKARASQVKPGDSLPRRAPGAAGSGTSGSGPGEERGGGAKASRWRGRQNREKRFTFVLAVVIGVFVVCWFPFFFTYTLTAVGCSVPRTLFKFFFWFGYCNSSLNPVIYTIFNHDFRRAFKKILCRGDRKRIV
Procedure: Briefly, the heart is removed from a pentobarbital-anesthetized male guinea pig. The left atrium is removed, dissected free of extraneous tissue and mounted in a 2 ml superfusion chamber. The tissue is paced at 60 pulse/minute and the sympathetic nerves excited at 6 minute intervals by field stimulation. The response to nerve stimulation is measured as the difference in contractile force between the basal contraction and peak contraction following a nerve stimulation. A concentration-response curve for clonidine (a known alpha2 -agonist) is prepared by administering increasing concentrations of clonidine following each successive stimulation. The tissue is, then, superfused with the alpha2 -antagonist to be tested for thirty minutes and the clonidine concentration-effect curve is repeated in the presence of antagonist. The receptor dissociation constant of the antagonist (KB) is defined as the antagonist concentration required to shift the log concentration-response curve of the agonist to the right by a factor of 2.
Pharmacol. 309 217-224 (1979).

[2] = tested on: platelet; experiment: platelet test (method not described); format: cell-based

Row | Compound | Kb [1] [nM] | EC50 [2] [nM] | Kb ([1]; isolated superfused guinea pig left atrium, clonidine as agonist, antagonist superfused thirty minutes, read-out: KB, guinea pig atrium (receptor dissociation constant of the antagonist)) [nM]
1 | C=CCOc1ccc(Cl)c2c1CCN(C)CC2 [Example 2, 9-allyloxy-6-chloro-3-methyl-2,3,4,5-tetrahydro-1H-3-benzazepine hydrochloride] | 320 | 90 | –
2 | C=CCSc1ccc2c(c1)CCNCC2 [Example 1, 7-allylthio-2,3,4,5-tetrahydro-1H-3-benzazepine hydrochloride] | 380 | – | –
3 | C=CCOc1cccc2c1CCN(C)CC2 [Example 5, 6-allyloxy-3-methyl-2,3,4,5-tetrahydro-1H-3-benzazepinehydrochloride] | – | – | 160
